This note sets out measurements from US7615651B2, “Diaryl, dipyridinyl and aryl-pyridinyl derivatives and uses thereof” (Pfizer Inc., priority 2006, dated 2009).

T3 sequence (P35372 whole entry): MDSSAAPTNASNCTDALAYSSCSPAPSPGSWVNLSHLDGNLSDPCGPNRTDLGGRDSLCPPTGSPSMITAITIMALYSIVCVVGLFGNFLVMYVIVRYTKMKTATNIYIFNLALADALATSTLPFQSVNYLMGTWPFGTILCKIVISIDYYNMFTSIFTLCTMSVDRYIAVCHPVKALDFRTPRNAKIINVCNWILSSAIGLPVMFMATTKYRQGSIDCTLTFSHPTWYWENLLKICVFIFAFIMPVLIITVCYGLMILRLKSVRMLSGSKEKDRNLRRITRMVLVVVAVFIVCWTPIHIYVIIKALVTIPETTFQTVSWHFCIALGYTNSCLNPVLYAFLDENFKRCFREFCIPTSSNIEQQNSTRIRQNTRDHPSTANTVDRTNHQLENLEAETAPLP
T2 sequence (P41145 whole entry): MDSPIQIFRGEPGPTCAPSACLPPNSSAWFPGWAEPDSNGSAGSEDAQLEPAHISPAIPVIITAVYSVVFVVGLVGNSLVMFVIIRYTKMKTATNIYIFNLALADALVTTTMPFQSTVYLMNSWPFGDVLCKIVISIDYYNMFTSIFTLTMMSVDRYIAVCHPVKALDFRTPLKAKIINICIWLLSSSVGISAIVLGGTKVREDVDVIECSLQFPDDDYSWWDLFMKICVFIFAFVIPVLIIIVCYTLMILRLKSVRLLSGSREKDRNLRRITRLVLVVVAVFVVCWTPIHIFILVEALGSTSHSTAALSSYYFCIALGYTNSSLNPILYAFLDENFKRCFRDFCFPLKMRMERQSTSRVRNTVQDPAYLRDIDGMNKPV

For one test, the target named is T1, opioid receptor delta (Homo sapiens, UniProt P41143).
T1 construct: expressed in transfected cells
T1 sequence (P41143 whole entry): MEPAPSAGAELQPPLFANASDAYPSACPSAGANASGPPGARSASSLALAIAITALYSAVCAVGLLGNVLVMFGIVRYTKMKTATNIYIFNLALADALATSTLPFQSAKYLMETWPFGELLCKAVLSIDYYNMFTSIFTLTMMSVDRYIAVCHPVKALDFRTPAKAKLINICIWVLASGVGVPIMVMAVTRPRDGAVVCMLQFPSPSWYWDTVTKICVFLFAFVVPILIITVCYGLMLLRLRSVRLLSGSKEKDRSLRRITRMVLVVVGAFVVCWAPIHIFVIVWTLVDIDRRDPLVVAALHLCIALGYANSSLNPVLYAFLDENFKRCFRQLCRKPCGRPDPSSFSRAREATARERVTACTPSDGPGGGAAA
Put plainly: GTPγ[35S] binding assay, antagonism of BW-373U86. Type of test: biochemical. The conditions noted are these: read-out: Delta functional (GTPγ[35S] binding Ki). As for the experimental part:
(§1) Membranes were prepared from cells as described (Bass et al, 1996). GTPγ[5S] binding assays were performed in a 96 well FlashPlate™ format in duplicate using […] GTPγ[^35S] and 5 μg membrane per well in assay buffer composed of 50 mM Tris HCl, pH 7.4, 5 mM MgCl2, 1 mM EDTA, 100 mM NaCl, 30 μM GDP, 0.1% bovine serum albumin and the following protease inhibitors: 100 μg/ml bacitracin, 100 μg/ml benzamidine, 5 μg/ml aprotinin, 5 μg/ml leupeptin. The assay mix was then incubated at 30° C. with increasing concentrations of antagonist (10^−10 M to 10^−5 M) for 10 minutes and challenged with the agonists BW-373U86 (1 nM), dynorphin-A (10 nM), […] (1 μM) for opioid receptors delta, kappa, and mu, respectively. The assays were performed at 30° C. for one hour. The FlashPlates were then centrifuged at 2000×g for 10 minutes. Stimulation of GTPγ[^35S] binding was then quantified using a Wallac Microbeta and Ki calculations were done using Prism™ by Graphpad.
With `Cc1cc(C(N)=O)ccc1-c1c(F)cc(CNC2Cc3ccccc3C2)cc1F` [1B-04], the Ki worked out at 5.28 nM.
The same measure, in the same setting: the value for `Cc1cc(C(N)=O)ccc1-c1cc(F)c(CNC2Cc3ccccc3C2)c(F)c1` [1B-07] was 0.0993 nM; that for `Cc1cc(C(N)=O)ccc1-c1ccc(CNC2Cc3ccccc3C2)c(F)c1` [1B-10] was 0.0326 nM.
Consider `Cc1cc(C(N)=O)ccc1-c1ccc(CNC2Cc3ccccc3C2)cn1` [1D-03], for which the Ki was 1.24 nM.
Same read-out and setting: the value for `Cc1cc(C(N)=O)ccc1-c1ccc(CNC2Cc3ccccc3C2)nc1` [1D-04] was 0.868 nM; that for `NC(=O)c1ccc(-c2ccc(CNC3Cc4ccccc4C3)nc2)c(Cl)c1` [1D-05] was 4.85 nM; that for `NC(=O)c1ccc(-c2ccc(CNC3Cc4ccccc4C3)cn2)c(Cl)c1` [1D-06] was 3.45 nM.
Still for that read-out and setting: the value for `NC(=O)c1cc(-c2ccc(CNC3Cc4ccccc4C3)cc2)ccc1F` [4A-03] was 51.9 nM.
`NC(=O)c1cccc(-c2ccc(CNCC3CCCOC3)cc2Cl)c1` (stereo not drawn) [4A-06]: the Ki was 23.6 nM.
As to `NC(=O)c1cccc(-c2ccc(CNC[C@@H]3CCCO3)cc2Cl)c1` [4A-07], the Ki worked out at 24.3 nM.
The same measure, in the same setting: the same measure for `NC(=O)c1cccc(-c2ccc(CNCCC3CCOCC3)cc2Cl)c1` [4A-08]: 2.79 nM; for `NC(=O)c1cccc(-c2ccc(CNC3CCc4ccccc43)cc2Cl)c1` (stereo not drawn) [4A-11]: 21.3 nM; for `NC(=O)c1cccc(-c2ccc(CNCC3CCCCO3)cc2Cl)c1` (stereo not drawn) [4A-12]: 22.7 nM.
On to `NC(=O)c1cccc(-c2ccc(CNCCC3CCCCO3)cc2Cl)c1` (stereo not drawn) [4A-13], for which the Ki amounted to 3.27 nM.

The next test addresses T2, opioid receptor kappa (Homo sapiens, UniProt P41145).
T2 construct: expressed in transfected cells
Put plainly: GTPγ[35S] binding assay, antagonism of dynorphin-A. The class given is biochemical. The conditions noted are these: average Ki; antagonism of dynorphin-A (10 nM) at kappa opioid receptor membranes; read-out: Kappa functional Ki (GTPγ[35S] binding). The method, then:
as §1
On the technique in general: GTPγS is a poorly hydrolysed GTP analogue; its binding reports G protein activation.
Turning to `CC(C)CCNCc1ccc(-c2cccc(-c3ncn[nH]3)c2)c(Cl)c1` [7A-04], the Ki was 0.794 nM.
The same measure, in the same setting: the same measure for `Cc1cc(CNCCC(C)C)ccc1-c1cccc(-c2ncn[nH]2)c1` [7A-05]: 2.12 nM; for `CC(C)CCNCc1cc(F)c(-c2cccc(-c3ncn[nH]3)c2)c(F)c1` [7A-06]: 4.61 nM.

Staying with this test, now noted: average Ki; antagonism of dynorphin-A (10 nM) at kappa opioid receptor; read-out: Kappa functional Ki (GTPγ[35S] binding).
With `CC(C)CCNCc1ccc(-c2cccc(NS(C)(=O)=O)c2)cc1` [8A-01], the Ki stood at 45.9 nM.
In the case of `Cc1cc(NS(C)(=O)=O)ccc1-c1ccc(CNCCC(C)C)cc1` [8B-01], the Ki came to 1450 nM.

Staying with this test, now noted: average Ki; antagonism of dynorphin-A (10 nM) stimulated GTPγ[35S] binding, kappa opioid receptor membranes; read-out: Kappa functional (GTPγ[35S] binding Ki).
Consider `Cc1cc(CNCCC(C)C)ccc1-c1cccc(C(N)=O)c1` [1A-01], for which the Ki worked out at 11.5 nM.
For `CC(C)CCNCc1ccc(-c2cccc(C(N)=O)c2)c(Cl)c1` [4A-05], the Ki amounted to 9.84 nM.

Still in this test, the particulars now being: read-out: Kappa functional (GTPγ[35S] binding Ki).
In the case of `Cc1cc(C(N)=O)ccc1-c1c(F)cc(CNC2Cc3ccccc3C2)cc1F` [1B-04], the Ki came to 20.1 nM.
Regarding `Cc1cc(C(N)=O)ccc1-c1cc(F)c(CNC2Cc3ccccc3C2)c(F)c1` [1B-07], the Ki turned out to be 0.241 nM.
Still for that read-out and setting: the same measure for `Cc1cc(C(N)=O)ccc1-c1ccc(CNC2Cc3ccccc3C2)c(F)c1` [1B-10]: 0.256 nM; for `Cc1cc(C(N)=O)ccc1-c1ccc(CNC2Cc3ccccc3C2)cn1` [1D-03]: 2.93 nM; for `Cc1cc(C(N)=O)ccc1-c1ccc(CNC2Cc3ccccc3C2)nc1` [1D-04]: 1.88 nM.
On the same count and under the same terms, the same measure for `NC(=O)c1ccc(-c2ccc(CNC3Cc4ccccc4C3)nc2)c(Cl)c1` [1D-05]: 4.96 nM.
Turning to `NC(=O)c1ccc(-c2ccc(CNC3Cc4ccccc4C3)cn2)c(Cl)c1` [1D-06], the Ki was 4.13 nM.
Take `NC(=O)c1cc(-c2ccc(CNC3Cc4ccccc4C3)cc2)ccc1F` [4A-03]: the Ki stood at 60.2 nM.
The same measure, in the same setting: the value for `NC(=O)c1cccc(-c2ccc(CNCC3CCCOC3)cc2Cl)c1` (stereo not drawn) [4A-06] was 14.7 nM.
Still for that read-out and setting: the value for `NC(=O)c1cccc(-c2ccc(CNC[C@@H]3CCCO3)cc2Cl)c1` [4A-07] was 14.7 nM.
Regarding `NC(=O)c1cccc(-c2ccc(CNCCC3CCOCC3)cc2Cl)c1` [4A-08], the Ki turned out to be 12.9 nM.
Still for that read-out and setting: the same measure for `NC(=O)c1cccc(-c2ccc(CNC3CCc4ccccc43)cc2Cl)c1` (stereo not drawn) [4A-11]: 7.69 nM; for `NC(=O)c1cccc(-c2ccc(CNCC3CCCCO3)cc2Cl)c1` (stereo not drawn) [4A-12]: 18.2 nM.
On the same count and under the same terms, the same measure for `NC(=O)c1cccc(-c2ccc(CNCCC3CCCCO3)cc2Cl)c1` (stereo not drawn) [4A-13]: 11 nM.

The same test, now with this note: read-out: Kappa functional Ki (GTPγ[35S] binding).
On to `COc1cc(C(N)=O)ccc1-c1ccc(CNCCC(C)C)cc1` [4B-46], for which the Ki is 14.7 nM.
Same read-out and setting: the same measure for `CC(C)CC[NH2+]Cc1ccc(-c2cccc(C(N)=O)c2)c(F)c1` [E5-01, (3′-Carbamoyl-2-fluoro-biphenyl-4-ylmethyl)-(3-methyl-butyl)-ammonium chloride]: 23 nM.

The next test has as its target T3, opioid receptor mu (Homo sapiens, UniProt P35372).
T3 construct: expressed in transfected cells
In words: GTPγ[35S] binding assay, antagonism of endorphin. Type of test: biochemical. As to conditions: average Ki; antagonism of endorphin (1 μM) at mu opioid receptor membranes; read-out: Mu functional Ki (GTPγ[35S] binding). As for the experimental part:
as §1
Turning to `CC(C)CCNCc1ccc(-c2cccc(-c3ncn[nH]3)c2)c(Cl)c1` [7A-04], the Ki worked out at 0.162 nM.
Same read-out and setting: the same measure for `Cc1cc(CNCCC(C)C)ccc1-c1cccc(-c2ncn[nH]2)c1` [7A-05]: 0.505 nM.
Take `CC(C)CCNCc1cc(F)c(-c2cccc(-c3ncn[nH]3)c2)c(F)c1` [7A-06]: the Ki was determined as 2.06 nM.

Still in this test, the particulars now being: average Ki; antagonism of endorphin (1 μM) at mu opioid receptor; read-out: Mu functional Ki (GTPγ[35S] binding).
For `CC(C)CCNCc1ccc(-c2cccc(NS(C)(=O)=O)c2)cc1` [8A-01], the Ki was found to be 14.6 nM.
Still for that read-out and setting: the same measure for `Cc1cc(NS(C)(=O)=O)ccc1-c1ccc(CNCCC(C)C)cc1` [8B-01]: 715 nM.

Staying with this test, now noted: average Ki; antagonism of endorphin (1 μM) stimulated GTPγ[35S] binding, mu opioid receptor membranes; read-out: Mu functional (GTPγ[35S] binding Ki).
Consider `Cc1cc(CNCCC(C)C)ccc1-c1cccc(C(N)=O)c1` [1A-01], for which the Ki turned out to be 1.49 nM.
On to `CC(C)CCNCc1ccc(-c2cccc(C(N)=O)c2)c(Cl)c1` [4A-05], for which the Ki was determined as 0.95 nM.

Staying with this test, now noted: read-out: Mu functional (GTPγ[35S] binding Ki).
For `Cc1cc(C(N)=O)ccc1-c1c(F)cc(CNC2Cc3ccccc3C2)cc1F` [1B-04], the Ki turned out to be 2.66 nM.
Same read-out and setting: the same measure for `Cc1cc(C(N)=O)ccc1-c1cc(F)c(CNC2Cc3ccccc3C2)c(F)c1` [1B-07]: 0.0494 nM; for `Cc1cc(C(N)=O)ccc1-c1ccc(CNC2Cc3ccccc3C2)c(F)c1` [1B-10]: 0.0717 nM.
Same read-out and setting: the same measure for `Cc1cc(C(N)=O)ccc1-c1ccc(CNC2Cc3ccccc3C2)cn1` [1D-03]: 0.541 nM; for `Cc1cc(C(N)=O)ccc1-c1ccc(CNC2Cc3ccccc3C2)nc1` [1D-04]: 0.715 nM; for `NC(=O)c1ccc(-c2ccc(CNC3Cc4ccccc4C3)nc2)c(Cl)c1` [1D-05]: 1.85 nM.
`NC(=O)c1ccc(-c2ccc(CNC3Cc4ccccc4C3)cn2)c(Cl)c1` [1D-06]: the Ki is 1.1 nM.
For the compound `NC(=O)c1cc(-c2ccc(CNC3Cc4ccccc4C3)cc2)ccc1F` [4A-03], the Ki turned out to be 25.2 nM.
Still for that read-out and setting: the value for `NC(=O)c1cccc(-c2ccc(CNCC3CCCOC3)cc2Cl)c1` (stereo not drawn) [4A-06] was 12.5 nM; that for `NC(=O)c1cccc(-c2ccc(CNC[C@@H]3CCCO3)cc2Cl)c1` [4A-07] was 9.03 nM; that for `NC(=O)c1cccc(-c2ccc(CNCCC3CCOCC3)cc2Cl)c1` [4A-08] was 3.44 nM.
On the same count and under the same terms, the value for `NC(=O)c1cccc(-c2ccc(CNC3CCc4ccccc43)cc2Cl)c1` (stereo not drawn) [4A-11] was 6.27 nM; that for `NC(=O)c1cccc(-c2ccc(CNCC3CCCCO3)cc2Cl)c1` (stereo not drawn) [4A-12] was 15 nM.
Still for that read-out and setting: the value for `NC(=O)c1cccc(-c2ccc(CNCCC3CCCCO3)cc2Cl)c1` (stereo not drawn) [4A-13] was 1.16 nM.

Still in this test, the particulars now being: read-out: Mu functional Ki (GTPγ[35S] binding).
Turning to `COc1cc(C(N)=O)ccc1-c1ccc(CNCCC(C)C)cc1` [4B-46], the Ki worked out at 121 nM.
On to `CC(C)CC[NH2+]Cc1ccc(-c2cccc(C(N)=O)c2)c(F)c1` [E5-01, (3′-Carbamoyl-2-fluoro-biphenyl-4-ylmethyl)-(3-methyl-butyl)-ammonium chloride], for which the Ki amounted to 14 nM.
